Source: patent publication EP4768499A1, “MACROCYCLIC PEPTIDE COMPOUND HAVING CELL MEMBRANE PERMEABILITY AND METABOLIC STABILITY, AND LIBRARY CONTAINING SAME” (Chugai Seiyaku Kabushiki Kaisha, priority 2023, dated 2025)
Starred links: 1 amine or outer side, 2 acyl side, 3 side chain; linkers in the order of their positions; H or OH if unused. Positions of bridges follow the written chain, without caps; N, C: chain ends. Non-standard residues stand in square brackets, D forms with d. Residues, ends and D or L forms follow the SMILES beside them. *: point of attachment. NMeF = CN[C@@H](Cc1ccccc1)C(=O)O; NMeGABA = CN(CCCC(=O)[*:2])[*:1]; NMeβAla = CN(CCC(=O)[*:2])[*:1]; NMeL = CN[C@@H](CC(C)C)C(=O)O; dNMeV = CN[C@@H](C(=O)O)C(C)C; NMeV = CN[C@H](C(=O)O)C(C)C; NMeAbu = CC[C@H](NC)C(=O)O; NMeA = CN[C@@H](C)C(=O)O; Piperidide = C1CCN(*)CC1; Abu = CC[C@H](N)C(=O)O; NBuGly = CCCCNCC(=O)O; Sar = CNCC(=O)O; tBu = CC(C)(C)*

Key:
[1] = Metabolic stability test: liver microsomal stability assay; assay type: in vitro ADME, mouse; details: mouse liver microsomes 0.5 mg protein/mL, compound 1 µM; for microsomal CLint at 1 µM: male, pH 7.4, presence of NADPH, read-out: Mouse Hepatic Microsome CLh,int NADPH(+); for Mouse Hepatic Microsome CLh,int NADPH(-): absence of NADPH
Description: Under the presence and absence of NADPH, a microsome solution prepared to a concentration of 0.5 mg protein/mL using 100 mM phosphate buffer (pH 7.4) with mouse liver microsomes (male, Corning Incorporated, USA) and the compound at a concentration of 1 µM were subjected to a metabolic reaction for 22 minutes, 44 minutes, or 66 minutes. Protein removal processing was performed over time using acetonitrile, and the remaining amount of unchanged compound was analyzed using LCMS to calculate the intrinsic hepatic clearance (CLh, int) (Table 6).

[2] = Membrane permeability test using Caco-2 cells with preincubation; assay type: in vitro ADME; details: Caco-2; preincubation 20 to 24 hours; Apical FaSSIF/HBSS pH 6.0, Basal HBSS 4% BSA pH 7.4; 180 minutes; read-out: Caco2 Papp
Description: (§1) The permeability coefficient (Caco-2 Papp (cm/sec)) is calculated using a numerical expression 1. [Expression 1] Papp = (1)/(C1 (0) × S) × (dQ)/(dt) [formula] dQ/dt represents the permeation rate of drug (the amount of drug appearing on the Basal side per unit time), S represents the total surface area of cells, and C1(0) represents the concentration of drug added on the Apical side.
(§2) Using a mixed medium of FaSSIF containing 1% DMSO and DMEM as the apical medium, and DMEM as the basal medium, Caco-2 cells and peptide compounds are preincubated for 20 to 24 hours under conditions of 5% CO2, 37°C, and 80 rpm. Afterward, the culture medium on the Apical side and the Basal side are aspirated and washed, the peptide compound was added to a FaSSIF/HBSS buffer solution containing 1% DMSO (1% DMSO) (pH 6.0) at the Apical side, a HBSS buffer solution containing 4% BSA (pH 7.4) was added to the Basal side, and measurement of membrane permeability is started. Each well is shaken under 5% CO2 at 37°C and 80 rpm, and at 180 minutes after the start of shaking, a sample on the Basal side is collected. The amount of peptide compounds in the sample was measured using LCMS, and the membrane permeability coefficient was calculated from the permeation amount (Table 7). When calculating the membrane permeability coefficient (Papp) from the permeation amount, the following expression can be used. Papp = (dQ)/(dt) × (1)/(C1 (0) × S) [formula]
(§3) dQ/dt represents the permeation rate of drug (the amount of drug appearing on the Basal side per unit time), C1(0) represents the concentration of drug added on the Apical side, and S represents the total surface area of cells.

Caco-2 cells = assay: as above; assay type: in vitro ADME; details: Caco-2 cells, preincubation 20 to 24 hours; apical FaSSIF/HBSS 1% DMSO pH 6.0, basal HBSS 4% BSA pH 7.4; basal sample at 180 minutes
Description: as §1, §2, §3

Row | Compound | microsomal CLint at 1 µM [1] | Mouse Hepatic Microsome CLh,int NADPH(-) [1] | Papp A→B [2] | Caco2 Papp (10^-6 cm/sec) (Caco-2 cells)
1 | CC[C@H](C)[C@@H]1NC(=O)[C@H](C)NC(=O)[C@H](CC(C)C)N(C)C(=O)[C@H](COC(C)(C)C)NC(=O)[C@H](CC(C)C)N(C)C(=O)[C@@H]2CCCN2C(=O)[C@H](Cc2ccccc2)NC(=O)CCN(C)C(=O)[C@H](CC(C)C)N(C)C(=O)CCCN(C)C(=O)C[C@@H](C(=O)N2CCCCC2)NC(=O)[C@H](Cc2ccccc2)N(C)C(=O)[C@H](CC(C)C)NC(=O)[C@H](CC)N(C)C1=O [pd017] ([NMeGABA][NMeL][NMeβAla]FP[NMeL]S(tBu)[NMeL]AI[NMeAbu]L[NMeF]D-Piperidide; lactam N-14) | 39.4 µL/min/mg | 40.1 µL/min/mg Protein | 0.09 ×10⁻⁶ cm/s | 0.09 10^-6 cm/sec
2 | CCCCN1CC(=O)N(C)[C@@H](CC)C(=O)N[C@@H](CC(C)C)C(=O)N[C@H](C(=O)N2CCCCC2)CC(=O)N(C)[C@@H](C)C(=O)N[C@@H]([C@@H](C)CC)C(=O)N(C)[C@@H](Cc2ccccc2)C(=O)N(C)[C@@H](CC(C)C)C(=O)N[C@@H](C(C)C)C(=O)N(C)CC(=O)N[C@@H](CC(C)C)C(=O)N(C)[C@@H](Cc2ccccc2)C(=O)N(C)[C@@H](C)C(=O)N[C@@H](CC(C)C)C1=O [pd018] ([NMeA]I[NMeF][NMeL]V[Sar]L[NMeF][NMeA]L[NBuGly][NMeAbu]LD-Piperidide; lactam N-14) | 42.3 µL/min/mg | 34.1 µL/min/mg Protein | 0.11 ×10⁻⁶ cm/s | 0.11 10^-6 cm/sec
3 | CCCCN1CC(=O)N[C@@H](C)C(=O)N(C)[C@@H](Cc2ccccc2)C(=O)N[C@@H](CC(C)C)C(=O)N[C@@H](C)C(=O)N(C)[C@@H](C(C)C)C(=O)N[C@H](C(=O)N2CCCCC2)CC(=O)N[C@H](C(C)C)C(=O)N(C)[C@@H](Cc2ccccc2)C(=O)N[C@@H](CC)C(=O)N(C)[C@@H](C(C)C)C(=O)N(C)CCC(=O)N[C@@H]([C@@H](C)O)C(=O)N(C)[C@@H](CC(C)C)C1=O [pd019] ([dV][NMeF][Abu][NMeV][NMeβAla]T[NMeL][NBuGly]A[NMeF]LA[NMeV]D-Piperidide; lactam N-14) | 34.7 µL/min/mg | 24.9 µL/min/mg Protein | < 0.11 ×10⁻⁶ cm/s | <0.11 10^-6 cm/sec

Now from value to compound:

Row | microsomal CLint at 1 µM [1] | Mouse Hepatic Microsome CLh,int NADPH(-) [1] | Papp A→B [2] | Caco2 Papp (10^-6 cm/sec) (Caco-2 cells) | Compound
4 | 33.3 µL/min/mg | 24.9 µL/min/mg Protein | < 0.11 ×10⁻⁶ cm/s | <0.11 10^-6 cm/sec | CC[C@H]1C(=O)N[C@@H](C(C)C)C(=O)N[C@H](C(=O)N2CCCCC2)CC(=O)N(C)[C@H](C(C)C)C(=O)N(C)[C@@H](Cc2ccccc2)C(=O)N[C@@H](CC(C)C)C(=O)N(C)CC(=O)N[C@@H](CC(C)C)C(=O)N[C@@H]([C@@H](C)O)C(=O)N(C)[C@@H](CC(C)C)C(=O)N(C)[C@@H](C(C)C)C(=O)N[C@@H](C)C(=O)N[C@@H](COC(C)(C)C)C(=O)N(C)[C@@H](Cc2ccccc2)C(=O)N1C [pd020] ([dNMeV][NMeF]L[Sar]LT[NMeL][NMeV]AS(tBu)[NMeF][NMeAbu]VD-Piperidide; lactam N-14)
5 | 37.1 µL/min/mg | 36.3 µL/min/mg Protein | 0.15 ×10⁻⁶ cm/s | 0.15 10^-6 cm/sec | CC[C@@H]1NC(=O)[C@H](Cc2ccccc2)N(C)C(=O)[C@H]([C@@H](C)CC)NC(=O)[C@H](CC(C)C)N(C)C(=O)[C@H](CC(C)C)NC(=O)CCN(C)C(=O)C[C@@H](C(=O)N2CCCCC2)NC(=O)[C@H](C(C)C)NC(=O)[C@H](CC(C)C)N(C)C(=O)[C@H](C)N(C)C(=O)[C@H]([C@@H](C)O)NC(=O)[C@H](CC(C)C)N(C)C(=O)[C@H](COC(C)(C)C)NC(=O)[C@H](Cc2ccccc2)N(C)C1=O [pd021] ([NMeβAla]L[NMeL]I[NMeF][Abu][NMeF]S(tBu)[NMeL]T[NMeA][NMeL]VD-Piperidide; lactam N-14)
